Test results from patent publication US8546590B2, “Polar dyes” (Cepheid, priority 2005, dated 2013).

Legend:
[1] = Degradation/deprotection of arsonate ester-protected dye in 25% aqueous ammonia (Method G, HPLC); assay type: physicochemical
Procedure: (§1) Measuring of Degradation/Deprotection Rate of Arsonate Esters-protected Dye.
(§2) A protected dye (1 mg) and Methyl Red dye (0.5 mg, internal standard, λmax 482 nm) were dissolved in MeOH (5 mL) and mixed with a buffer or 25% aqueous ammonia (45 mL). Samples (1 mL) were taken over a period of degradation. The samples were quickly placed under vacuum to remove ammonia and redissolved in MeOH or used directly for HPLC analysis in buffers in a range of pH 1.6 (0.1% trifluoroacetic acid)-7.5 (0.1 M triethylammonium acetate). HPLC analysis was performed on Phenomenex Gemini 5 um C18 110A column (250×4.6 mm) using 0-100% gradient of MeCN in 0.1M triethylammonium acetate (pH 7.5) buffer. The chromatogram was detected in a range 200-600 nm using Varian ProStar PDA detector. Calculations of the relative concentrations were performed based on peaks area at 520 nm. An internal standard gives a peak at 8.6 min (λmax 482 nm).
FIG. 12 illustrates an example of a typical kinetic curve corresponding to the base-induced deprotection of a bis-pinacol protected azodye.

[2] = Degradation/deprotection of arsonate ester-protected dye in aqueous buffers (Method G, HPLC); assay type: physicochemical; conditions: for stability in aqueous buffers: range of pH 1.6-7.5 in aqueous buffers
Procedure: as §1, §2

[3] = 25% aqueous ammonia, room temperature

Row | Compound | stability / degradation in 25% aqueous ammonia ([1]; 25% aqueous ammonia) | degradation of the compound observed ([1]; over 3 days period, 25% aqueous ammonia at room temperature (and pH 1.6-7.5 buffers)) | stability in aqueous buffers [2] | Rate of full degradation (τ1/2) [1, 3] | time after which practically full deprotection was observed [1, 3] | Rate of degradation (τ1/2) [1, 3] | degradation in acidic conditions ([2]; acidic conditions, aqueous buffers) | time after which practically full deprotection was observed ([2]; buffer, room temperature, pH 7.5) | degradation at pH 7.5 ([2]; pH 7.5 aqueous buffer) | Rate of full degradation (τ1/2) ([2]; room temperature and pH 7.5 buffer)
1 | CN(C)c1ccc(N=Nc2ccc([As]34(Oc5ccccc5O3)Oc3ccccc3O4)cc2)cc1 [Example 14, [4-(4′-Dimethylaminophenylazo)phenyl]arsonic acid bis-catechol chelate] | very stable | No degradation | very stable | – | – | – | – | – | – | –
2 | CN(C)c1ccc(N=Nc2ccc([As]3(=O)OC(C)(C)CC(C)(C)O3)cc2)cc1 [Example 12, [4-(4′-Dimethylaminophenylazo)phenyl]arsonic acid 2,4-dimethyl-2,4-pentanediol chelate] | degrades quickly | – | relatively stable | approximately 15 min | 4 h | – | – | – | – | –
3 | CN(C)c1ccc(N=Nc2ccc([As]34(OC(C)(C)C(C)(C)O3)OC(C)(C)C(C)(C)O4)cc2)cc1 [Example 11, [4-(4′-Dimethylaminophenylazo)phenyl]arsonic acid bis-pinacolate] | degrades | – | stable | – | – | approximately 3 hr | – | – | – | –
4 | CN(C)c1ccc(N=Nc2ccc([As]3(=O)OC(=O)C(C)(C)O3)cc2)cc1 (stereo not drawn) [Example 13, [4-(4′-Dimethylaminophenylazo)phenyl]arsonic acid, chelate with 2-hydroxy-isobutyric acid] | – | – | very unstable | – | – | – | degrades instantly | 2 h | within minutes | approximately 10 min
